Reference: PubChem BioAssay AID256 (DTP/NCI, 2004)
“And” between values parts separate entries of the source, which are not always exact repeats. Equal values may be shown once. Toxic doses and inconclusive results are not listed.

Tested on: CD2F1 mice, L1210 leukemia ip, survival T/C
Experiment: NCI In Vivo Anticancer Drug Screen. Data for tumor model L1210 Leukemia (intraperitoneal) in CD2F1 (CDF1) mice
Conditions: higher = longer survival
Outline: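 Ratio T/C, where T is the treated-group value and C the vehicle-dosed control value, from mice implanted with a transplantable tumor.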

[1] = endpoint: mean survival time, dose: 100.0 mg/kg/injection, schedule: Q01DX009 (ip), vehicle: saline
[2] = endpoint: mean survival time, dose: 200.0 mg/kg/injection, schedule: Q01DX009 (ip), vehicle: saline
[3] = endpoint: mean survival time, dose: 400.0 mg/kg/injection, schedule: Q01DX009 (ip), vehicle: saline
[4] = endpoint: mean survival time, dose: 50.0 mg/kg/injection, schedule: Q01DX009 (ip), vehicle: saline with Tween-80
[5] = endpoint: mean survival time, dose: 100.0 mg/kg/injection, schedule: Q01DX009 (ip), vehicle: saline with Tween-80
[6] = endpoint: mean survival time, dose: 25.0 mg/kg/injection, schedule: Q04DX003 (ip), vehicle: saline with Tween-80
[7] = endpoint: mean survival time, dose: 50.0 mg/kg/injection, schedule: Q04DX003 (ip), vehicle: saline with Tween-80
[8] = endpoint: mean survival time, dose: 100.0 mg/kg/injection, schedule: Q04DX003 (ip), vehicle: saline with Tween-80
[9] = endpoint: mean survival time, dose: 200.0 mg/kg/injection, schedule: Q04DX003 (ip), vehicle: saline with Tween-80
[10] = endpoint: mean survival time, dose: 400.0 mg/kg/injection, schedule: Q04DX003 (ip), vehicle: saline with Tween-80

## NC1=NCN(C2OC(CO)C(O)C2O)C(=O)N1 (stereo not given)
endpoint: mean survival time, dose: 1.56 mg/kg/injection, schedule: Q01DX009 (ip), vehicle: saline
  T/C: 96 % of control
endpoint: mean survival time, dose: 3.12 mg/kg/injection, schedule: Q01DX009 (ip), vehicle: saline
  T/C: 113 % of control and 120 % of control and 93 % of control
endpoint: mean survival time, dose: 3.13 mg/kg/injection, schedule: Q01DX009 (ip), vehicle: saline
  T/C: 113 % of control
endpoint: mean survival time, dose: 6.25 mg/kg/injection, schedule: Q01DX009 (ip), vehicle: saline
  T/C: 96 % of control
endpoint: mean survival time, dose: 12.5 mg/kg/injection, schedule: Q01DX009 (ip), vehicle: saline
  T/C: 89 % of control
endpoint: mean survival time, dose: 25.0 mg/kg/injection, schedule: Q01DX009 (ip), vehicle: saline
  T/C: 90 % of control and 100 % of control
endpoint: mean survival time, dose: 50.0 mg/kg/injection, schedule: Q01DX009 (ip), vehicle: saline
  T/C: 110 % of control
endpoint: mean survival time, dose: 50.0 mg/kg/injection, schedule: Q01DX009 (oral), vehicle: saline
  T/C: 96 % of control
[1]
  T/C: 95 % of control
endpoint: mean survival time, dose: 100.0 mg/kg/injection, schedule: Q01DX009 (oral), vehicle: saline
  T/C: 110 % of control
[2]
  T/C: 95 % of control
endpoint: mean survival time, dose: 200.0 mg/kg/injection, schedule: Q01DX009 (oral), vehicle: saline
  T/C: 119 % of control
[3]
  T/C: 124 % of control
endpoint: mean survival time, dose: 600.0 mg/kg/injection, schedule: Q01DX009 (ip), vehicle: saline
  T/C: 100 % of control
endpoint: mean survival time, dose: 800.0 mg/kg/injection, schedule: Q01DX009 (oral), vehicle: saline
  T/C: 118 % of control
endpoint: median survival time, dose: 1.56 mg/kg/injection, schedule: Q01DX009 (ip), vehicle: saline
  T/C: 110 % of control
endpoint: median survival time, dose: 32.0 mg/kg/injection, schedule: Q03HX008 (ip), vehicle: saline
  T/C: 124 % of control
endpoint: median survival time, dose: 64.0 mg/kg/injection, schedule: Q01DX001 (oral), vehicle: saline
  T/C: 98 % of control
endpoint: median survival time, dose: 64.0 mg/kg/injection, schedule: Q01DX009 (oral), vehicle: saline
  T/C: 100 % of control
endpoint: median survival time, dose: 64.0 mg/kg/injection, schedule: Q03HX008 (ip), vehicle: saline
  T/C: 124 % of control
endpoint: median survival time, dose: 128.0 mg/kg/injection, schedule: Q03HX024 (oral), vehicle: saline
  T/C: 113 % of control
endpoint: median survival time, dose: 128.0 mg/kg/injection, schedule: Q04DX003 (oral), vehicle: saline
  T/C: 98 % of control
endpoint: median survival time, dose: 256.0 mg/kg/injection, schedule: Q01DX001 (ip), vehicle: saline
  T/C: 124 % of control
endpoint: median survival time, dose: 256.0 mg/kg/injection, schedule: Q01DX001 (oral), vehicle: saline
  T/C: 100 % of control
endpoint: median survival time, dose: 256.0 mg/kg/injection, schedule: Q03HX008 (oral), vehicle: saline
  T/C: 118 % of control
endpoint: median survival time, dose: 256.0 mg/kg/injection, schedule: Q04DX003 (oral), vehicle: saline
  T/C: 100 % of control
endpoint: median survival time, dose: 512.0 mg/kg/injection, schedule: Q03HX008 (oral), vehicle: saline
  T/C: 124 % of control
endpoint: median survival time, dose: 512.0 mg/kg/injection, schedule: Q04DX003 (oral), vehicle: saline
  T/C: 113 % of control
endpoint: median survival time, dose: 1024.0 mg/kg/injection, schedule: Q01DX001 (oral), vehicle: saline
  T/C: 124 % of control
endpoint: median survival time, dose: 1024.0 mg/kg/injection, schedule: Q01DX009 (ip), vehicle: saline
  T/C: 92 % of control and 98 % of control
endpoint: median survival time, dose: 1024.0 mg/kg/injection, schedule: Q01DX009 (sc), vehicle: saline
  T/C: 91 % of control

## O=c1c(-c2ccccc2)nn(C2OC(CO)C(O)C(O)C2O)c(=S)n1-c1ccccc1 (stereo not given)
endpoint: mean survival time, dose: 7.8 mg/kg/injection, schedule: Q01DX005 (ip), vehicle: water
  T/C: 101 % of control
endpoint: mean survival time, dose: 15.6 mg/kg/injection, schedule: Q01DX005 (ip), vehicle: water
  T/C: 96 % of control
endpoint: mean survival time, dose: 31.3 mg/kg/injection, schedule: Q01DX005 (ip), vehicle: water
  T/C: 101 % of control
endpoint: mean survival time, dose: 62.5 mg/kg/injection, schedule: Q01DX005 (ip), vehicle: water
  T/C: 93 % of control
endpoint: mean survival time, dose: 125.0 mg/kg/injection, schedule: Q01DX005 (ip), vehicle: water
  T/C: 101 % of control

## CC(Br)C(=O)OC1C=CCCC1 (stereo not given)
[4]
  T/C: 97 % of control
[5]
  T/C: 101 % of control

## CCCCCC(O)CCC(=O)NN (stereo not given)
endpoint: mean survival time, dose: 100.0 mg/kg/injection, schedule: Q04DX003 (ip), vehicle: saline
  T/C: 100 % of control
endpoint: mean survival time, dose: 200.0 mg/kg/injection, schedule: Q04DX003 (ip), vehicle: saline
  T/C: 117 % of control

## CC(C)C(=O)[O][Sn]([CH2]c1ccccc1)([CH2]c1ccccc1)[CH2]c1ccccc1
endpoint: mean survival time, dose: 25.0 mg/kg/injection, schedule: Q01DX009 (ip), vehicle: saline with Tween-80
  T/C: 90 % of control
[6]
  T/C: 95 % of control
[4]
  T/C: 95 % of control
[7]
  T/C: 90 % of control
[8]
  T/C: 87 % of control

## O=C(Nc1cc(Cl)c(Cl)cc1Cl)C1CC1
[4]
  T/C: 119 % of control
[5]
  T/C: 101 % of control
endpoint: mean survival time, dose: 200.0 mg/kg/injection, schedule: Q01DX009 (ip), vehicle: saline with Tween-80
  T/C: 101 % of control

## O=C(O)/C=C/c1ccccc1C(=O)O
[1]
  T/C: 103 % of control
[2]
  T/C: 101 % of control
[3]
  T/C: 101 % of control

## COC(=O)/C=C/N(Cc1ccccc1)Cc1ccccc1
[8]
  T/C: 98 % of control
[9]
  T/C: 96 % of control
[10]
  T/C: 94 % of control

## COc1nc(NC2OCC(O)C(O)C2O)c(I)c(=O)n1C (stereo not given)
endpoint: median survival time, dose: 12.5 mg/kg/injection, schedule: Q01DX005 (ip), vehicle: saline with Tween-80
  T/C: 101 % of control
endpoint: median survival time, dose: 25.0 mg/kg/injection, schedule: Q01DX005 (ip), vehicle: saline with Tween-80
  T/C: 100 % of control
endpoint: median survival time, dose: 50.0 mg/kg/injection, schedule: Q01DX005 (ip), vehicle: saline with Tween-80
  T/C: 100 % of control
endpoint: median survival time, dose: 100.0 mg/kg/injection, schedule: Q01DX005 (ip), vehicle: saline with Tween-80
  T/C: 101 % of control
endpoint: median survival time, dose: 200.0 mg/kg/injection, schedule: Q01DX005 (ip), vehicle: saline with Tween-80
  T/C: 100 % of control

## COc1ccc(C(C)N=CC(C)(C)C)cc1 (stereo not given)
[9]
  T/C: 100 % of control
[10]
  T/C: 88 % of control

## O=C(O)C1CCN1C1CCCCC1 (stereo not given)
[1]
  T/C: 98 % of control
[8]
  T/C: 103 % of control
[2]
  T/C: 100 % of control
[9]
  T/C: 103 % of control
[3]
  T/C: 98 % of control
[10]
  T/C: 100 % of control

## O=C1CCC(=O)N1CCC1=NCCc2ccccc21
[8]
  T/C: 100 % of control
[9]
  T/C: 96 % of control
[10]
  T/C: 100 % of control

## CCC1=NNC(=O)C1(Br)Br
endpoint: mean survival time, dose: 12.5 mg/kg/injection, schedule: Q04DX003 (ip), vehicle: saline with Tween-80
  T/C: 100 % of control
[6]
  T/C: 102 % of control
[7]
  T/C: 105 % of control

## NNc1ncnc2c(C3OC(CO)C(O)C3O)[nH]nc12 (stereo not given)
endpoint: mean survival time, dose: 150.0 mg/kg/injection, schedule: Q01DX009 (ip), vehicle: saline sonified
  T/C: 155 % of control

## O=S(=O)([O][Hg][CH2]C1Cc2ccccc2O1)[O][Hg][CH2]C1Cc2ccccc2O1 (stereo not given)
endpoint: mean survival time, dose: 6.25 mg/kg/injection, schedule: Q01DX009 (ip), vehicle: Klucel (hydroxypropylcellulose) (HPC)
  T/C: 95 % of control
endpoint: mean survival time, dose: 12.5 mg/kg/injection, schedule: Q01DX009 (ip), vehicle: Klucel (hydroxypropylcellulose) (HPC)
  T/C: 92 % of control
endpoint: mean survival time, dose: 25.0 mg/kg/injection, schedule: Q01DX009 (ip), vehicle: Klucel (hydroxypropylcellulose) (HPC)
  T/C: 96 % of control
endpoint: median survival time, dose: 6.25 mg/kg/injection, schedule: Q04DX003 (ip), vehicle: saline with Tween-80
  T/C: 100 % of control
endpoint: median survival time, dose: 12.5 mg/kg/injection, schedule: Q04DX003 (ip), vehicle: saline with Tween-80
  T/C: 100 % of control
endpoint: median survival time, dose: 25.0 mg/kg/injection, schedule: Q04DX003 (ip), vehicle: saline with Tween-80
  T/C: 100 % of control

## Cc1cn(C2CC(O)C(CO)O2)c(=O)nc1NCCc1c[nH]c2ccccc12 (stereo not given)
endpoint: median survival time, dose: 12.5 mg/kg/injection, schedule: Q01DX005 (ip), vehicle: distilled water + Tween-80
  T/C: 103 % of control
endpoint: median survival time, dose: 25.0 mg/kg/injection, schedule: Q01DX005 (ip), vehicle: distilled water + Tween-80
  T/C: 103 % of control
endpoint: median survival time, dose: 50.0 mg/kg/injection, schedule: Q01DX005 (ip), vehicle: distilled water + Tween-80
  T/C: 102 % of control
endpoint: median survival time, dose: 100.0 mg/kg/injection, schedule: Q01DX005 (ip), vehicle: distilled water + Tween-80
  T/C: 103 % of control
endpoint: median survival time, dose: 200.0 mg/kg/injection, schedule: Q01DX005 (ip), vehicle: distilled water + Tween-80
  T/C: 102 % of control

## C=C1C(=O)OCC1C(=O)O (stereo not given)
endpoint: mean survival time, dose: 4.0 mg/kg/injection, schedule: Q01DX009 (ip), vehicle: saline
  T/C: 97 % of control and 106 % of control
endpoint: mean survival time, dose: 8.0 mg/kg/injection, schedule: Q01DX009 (ip), vehicle: saline
  T/C: 96 % of control and 101 % of control
endpoint: mean survival time, dose: 16.0 mg/kg/injection, schedule: Q01DX009 (ip), vehicle: saline
  T/C: 101 % of control and 110 % of control
endpoint: mean survival time, dose: 32.0 mg/kg/injection, schedule: Q01DX009 (ip), vehicle: saline
  T/C: 104 % of control and 110 % of control
endpoint: mean survival time, dose: 64.0 mg/kg/injection, schedule: Q01DX009 (ip), vehicle: saline
  T/C: 88 % of control
